Laboratory results reported in US6525057B2, “Sustained release ranolazine formulations” (CV Therapeutics, Inc., priority 1998, dated 2003).
Read-outs that look alike come from different tables or passages of the source. Blank lines part the entries; values can stand above or below the molecule they belong to.

Assays:
[1] = Example 8: Day 5 pharmacokinetics of racemic ranolazine and enantiomers, SR 1500 and 2000 mg bid; format: in vivo, human; conditions: for Tmax / Cmax / AUC: male, human, plasma, oral; for AUC: read-out: AUC96-108h; for differences in the pharmacokinetic parameters of the enantiomers: multiple dosing with the SR formulation
Method: This Example evaluated the safety and tolerability of administering racemic ranolazine free base formulations as in Example 2D. The individual and mean concentrations of racemic ranolazine and its enantiomers, (R)-(+)-N-(2,6-dimethylphenyl)-4-[2-hydroxy-3-(2-methoxyphenoxy)-propyl]-1-piperazineacetamide, (S)-(−)-N-(2,6-dimethylphenyl)-4-[2-hydroxy-3-(2-methoxyphenoxy)-propyl]-1-piperazineacetamide in human plasma were also determined.
(§1) The study was performed with ascending doses of sustained release ranolazine dosage forms. Before and at intervals during and after the dosing period, blood samples were drawn for ranolazine assay and blood pressure, heart rate, ECG and symptoms were monitored throughout. Data summaries were reviewed after each phase before proceeding to the next phase of the study.
(§2) Eight subjects, all healthy male volunteers aged between 18 and 40 entered and all completed the study and were available for pharmacokinetic and safety analysis. The subjects were each given doses of the various types of ranolazine free base in the form of sustained release tablets including 500 mg and 750 mg tablets or with matching placebo as necessary (2×750 mg size plus 1×500 mg size) to make unit oral doses of 1500 and 2000 mg.
(§3) In each phase: one dose bid for four days with a single dose on Day 5. On day 5 each volunteer underwent a full pharmacokinetic profile including supine and erect blood pressure (BP) and heart rate, ECG data, adverse events, clinical chemistry and hematology results, urinalysis results.
(§4) These tests were made using two-sided t-tests with estimates of variability from the ANOVA models. Steady state was also assessed by comparing means for C48h, C72h and C96h using a mixed effects ANOVA model and untransformed and log, transformed data. For hemodynamic parameters, Day 1 pre-dose treatment means and Day 5 data were compared across treatments via two-sided t-tests using estimates of variability from mixed effects ANOVA models. Ninety and 95% confidence intervals were calculated for the treatment comparisons. No adjustments were made for multiple comparisons.

[2] = cited from earlier work; for mean peak plasma concentration of ranolazine free base: 1 hour after dose; for mean trough plasma concentration: 8 hours after dose
[3] = tested on: patients with stable angina pectoris; conditions: cited from earlier work; for increase in total exercise duration (±SEM) compared with baseline: after 4 weeks, 1 hour after medication (peak effect), P=NS vs placebo
[4] = Solubility of ranolazine in aqueous solutions by pH; format: physicochemical
[5] = tested on: healthy male volunteers; experiment: Example 8: safety and tolerability of SR 1500 and 2000 mg bid; format: in vivo, human; conditions: for subjects too symptomatic on standing to complete BP measurements: usually 2-6 hours post-dose; for reduction in orthostatic systolic BP: statistically significant
Method: as §1, §2, §3, §4

[6] = tested on: patients with chronic stable angina pectoris; experiment: Example 4: safety, hemodynamics and tolerability; format: in vivo, human
Method: After each 1 week period, patients returned to the exercise laboratory in the morning, at least 1 hour after a light breakfast, for an ETT. This was designated the trough ETT; the trough ETTs were performed at the same time of day for each patient. After completing the trough ETT, the patient received the next scheduled blinded medication dose from the blister pack used that week. Another ETT was performed 1 hour after the administered dose. This was designated the peak ETT. Blood samples were obtained at trough (approximately 8 hours after dosing) and at peak (1 hour after dosing). Other standard laboratory tests were monitored regularly throughout the study.
Blood pressure (by cuff) and heart rate were monitored before all ETTs, during the ETT, during the last minute of each stage of the test, at onset angina, at the point of maximum exercise, and during recovery (every minute for 4 minutes, then every 5 minutes until values returned to baseline). Heart rates also was monitored continuously and standard 12-lead ECG recordings were done immediately before exercise with the patient standing on the treadmill, at the end of each stage of exercise, at the maximally tolerated exercise load, and at the termination of exercise.

[7] = tested on: patients with chronic stable angina pectoris; experiment: Example 4: exercise treadmill test (ETT) at peak and trough, IR regimens; format: in vivo, human; conditions: Peak, all patients, 267 mg tid IR ranolazine .2HCl
Method: In this Example, the safety and anti-ischemic effects of high plasma ranolazine levels in a large group of angina patients was evaluated and the duration of any effects during steady-state dosing with bid and tid regimens was assessed. In this Example, patients with chronic stable angina pectoris who were responsive to conventional antianginal drugs were treated with 3 ranolazine .2HCl dosing regimens: 267 mg tid, 400 mg bid and 400 mg tid IR Formulations of Example 1. Exercise testing parameters and ranolazine free base concentrations were determined at peak and trough plasma levels.
The study involved double-blind, placebo-controlled randomized treatment phase with 4 treatments (placebo, ranolazine .2HCl 400 mg bid, ranolazine .2HCl 267 mg tid, and ranolazine .2HCl 400 mg tid), 4 treatment sequences and 5 double-blind treatment periods in an extended period Latin square design on pre-qualified patients who were responsive to known antianginal therapy and had stable exercise times.
Human patients with chronic stable angina pectoris, of at least 3 months' duration, that had responded to conventional antianginal therapy were considered candidates. […]

[8] = Day 5, 1500 mg SR bid (racemic, Example 2D)
[9] = 1500 mg, Day 5, 1500 mg SR bid (racemic, Example 2D), read-out: Median tmax
[10] = Day 5, 2000 mg SR bid (racemic, Example 2D)

Cave [1, 8]: 2201 ± 1237 ng/mL | Cmin [1, 8]: 1514 ± 1201 ng/mL | Degree of fluctuation [1, 8]: 0.824 | Tmax [1, 9]: 4 h | Cmax [1, 8]: 2940 ± 1430 ng/mL | AUC [1, 8]: 26400 ng·h/mL | differences in the pharmacokinetic parameters of the enantiomers [1]: no differences
Structure (SMILES): COc1ccccc1OC[C@@H](O)CN1CCN(CC(=O)Nc2c(C)cccc2C)CC1 [(−)S ranolazine, (S)-(−)-N-(2,6-dimethylphenyl)-4-[2-hydroxy-3-(2-methoxyphenoxy)-propyl]-1-piperazineacetamide]

Structure (SMILES): COc1ccccc1OCC(O)CN1CCN(CC(=O)Nc2c(C)cccc2C)CC1 (centres unmarked) [ranolazine .2HCl]
mean peak plasma concentration of ranolazine free base ([2]; 30 mg tid IR): 94 ng/mL | mean trough plasma concentration ([2]; 30 mg tid IR): 18 ng/mL | mean peak plasma concentration of ranolazine free base ([2]; 60 mg tid IR): 219 ng/mL | mean trough plasma concentration ([2]; 60 mg tid IR): 37 ng/mL | mean peak plasma concentration of ranolazine free base ([2]; 120 mg tid IR): 510 ng/mL | mean trough plasma concentration ([2]; 120 mg tid IR): 90 ng/mL | therapy compared with placebo ([3]; 30, 60 and 120 mg tid): not superior to placebo

USP Solubility Class ([4]; Solution pH 4.81): Freely soluble | USP Solubility Class ([4]; Solution pH 4.89): Soluble | USP Solubility Class ([4]; Solution pH 4.90): Soluble | USP Solubility Class ([4]; Solution pH 5.04): Soluble | USP Solubility Class ([4]; Solution pH 5.35): Sparingly soluble | USP Solubility Class ([4]; Solution pH 5.82): Slightly soluble | USP Solubility Class ([4]; Solution pH 6.46): Slightly soluble | USP Solubility Class ([4]; Solution pH 6.73): Very slightly soluble | USP Solubility Class ([4]; Solution pH 7.08): Very slightly soluble | USP Solubility Class ([4]; Solution pH 7.59 (unbuffered water)): Very slightly soluble | USP Solubility Class ([4]; Solution pH 7.73): Very slightly soluble | USP Solubility Class ([4]; Solution pH 12.66): Very slightly soluble | Cave [1, 8]: 4126 ± 1995 ng/mL | Cmin [1, 8]: 2932 ± 1918 ng/mL | Degree of fluctuation [1, 8]: 0.664 | Cave [1, 10]: 5705 ± 2153 ng/mL | Cmin [1, 10]: 4149 ± 2228 ng/mL | Degree of fluctuation [1, 10]: 0.591 | Steady-state plasma levels of ranolazine free base attained by ([1]; SR bid dosing): ≤ 4 days | Tmax [1, 9]: 4 h | Tmax ([1]; 2000 mg, Day 5, 2000 mg SR bid (racemic, Example 2D), read-out: Median tmax): 4 h | Tmax ([1]; 2000 mg, within the dose interval, SR 1500 and 2000 mg bid, read-out: tmax values post-dose): 1 to 6 h | Cmax [1, 8]: 5280 ± 2430 ng/mL | AUC [1, 8]: 49500 ng·h/mL | Cmax [1, 10]: 7280 ± 2700 ng/mL | AUC [1, 10]: 68500 ng·h/mL
Structure (SMILES): COc1ccccc1OCC(O)CN1CCN(CC(=O)Nc2c(C)cccc2C)CC1 (racemic) [ranolazine, (±)-N-(2,6-dimethylphenyl)-4-[2-hydroxy-3-(2-methoxyphenoxy)-propyl]-1-piperazineacetamide]
subjects too symptomatic on standing to complete BP measurements ([5]; 1500 mg SR bid): 3 of 8 | subjects too symptomatic on standing to complete BP measurements ([5]; 2000 mg SR bid): 2 of 8 | adverse events ([5]; SR 1500 and 2000 mg bid versus placebo): headache, dizziness and blocked nose seemed more common on ranolazine | reduction in orthostatic systolic BP ([5]; day 5, 1500 mg SR bid, 4 hours post-dose): −9.8 mm Hg | reduction in orthostatic systolic BP ([5]; day 5, 2000 mg SR bid, 6 hours post-dose): −8.4 mmHg | ECG intervals or complex morphology ([6]; 3 IR dosing regimens): no drug-related changes | blood glucose concentrations, lipid values or liver function tests ([6]; 3 IR dosing regimens): no clinically significant changes | tolerability ([6]; over the plasma concentrations achieved in the study): well tolerated | blood pressure or heart rate ([6]; peak ranolazine plasma concentrations): not associated with changes in blood pressure or heart rate | double product versus placebo ([6]; peak ranolazine plasma concentrations, any dosing regimen): no statistically significant differences | standing or maximum exercise double product versus placebo ([6]; trough ranolazine plasma concentrations, per-protocol analysis, 3 dosing regimens): no statistically significant differences | increase in total exercise duration (±SEM) compared with baseline ([3]; 30 mg tid): 0.3 ± 0.2 min | increase in total exercise duration (±SEM) compared with baseline ([3]; 60 mg tid): 0.6 ± 0.2 min | increase in total exercise duration (±SEM) compared with baseline ([3]; 120 mg tid): 0.5 ± 0.2 min | Mean time to onset angina [7]: 9.40 min

Cave [1, 8]: 2144 ± 1115 ng/mL | Cmin [1, 8]: 1436 ± 1046 ng/mL | Degree of fluctuation [1, 8]: 0.833 | Tmax [1, 9]: 4 h | Cmax [1, 8]: 2910 ± 1310 ng/mL | AUC [1, 8]: 25700 ng·h/mL | differences in the pharmacokinetic parameters of the enantiomers [1]: no differences
Structure (SMILES): COc1ccccc1OC[C@H](O)CN1CCN(CC(=O)Nc2c(C)cccc2C)CC1 [(+)R ranolazine, (R)-(+)-N-(2,6-dimethylphenyl)-4-[2-hydroxy-3-(2-methoxyphenoxy)-propyl]-1-piperazineacetamide]
